Marks after values point to notes of the source that are not given here. Residues, ends and D or L forms follow the SMILES beside them.
These compounds were tested on HLA matched or autologous B cell line targets pre-pulsed with the peptide (assay: Standard CTL chromium release assay with restimulated lymphocytes from malaria-exposed Gambians (secondary CTL response)). Conditions: HLA-A2.
Format: cell-based, humans
Method: Peptides shown to bind to a particular HLA class I allele were tested for CTL recognition in assays using lymphocytes from malaria-exposed Gambians, as described previously^1. A minority of peptides, synthesized to correspond to a peptides binding motif were not tested in the relevant assembly assay but tested only for CTL recognition. Cells from 82 adult Gambians and 53 Gambian children, all exposed to malaria, were used in the course of these studies. The children and adults were HLA typed using cellular or molecular techniques as described previously^1. Peptides were incubated with cells either singly, or in pools as described^1 at concentrations of 10-100µM. Peptides could either be left with the cells for the duration of restimulation (as reported^1) or washed off after an hour. Cells were cultured for 1-3 weeks before a standard CTL chromium release assay^1 was performed using HLA matched or autologous B cell line targets pre-pulsed with the peptide to be tested. Peptides were tested either singly or in pools for CTL recognition.
For `CC[C@H](C)[C@H](NC(=O)CN)C(=O)N[C@@H](C)C(=O)NCC(=O)NCC(=O)N[C@@H](CC(C)C)C(=O)N[C@@H](C)C(=O)N[C@@H](CC(C)C)C(=O)N[C@@H](CC(C)C)C(=O)O` [tr39] (H-GIAGGLALL-OH), the “epitope for a secondary cytotoxic T lymphocyte response (asterisk mark)” value (“epitope” for short) was “tr39 *”. In the case of `CC(C)C[C@H](NC(=O)[C@H](Cc1ccc(O)cc1)NC(=O)[C@H](CCCCN)NC(=O)[C@@H](NC(=O)[C@H](CC(N)=O)NC(=O)CNC(=O)[C@H](CC(C)C)NC(=O)[C@@H](N)Cc1c[nH]cn1)C(C)C)C(=O)N[C@H](C(=O)O)C(C)C` [tr26] (H-HLGNVKYLV-OH), the “epitope” value is reported as “tr26 *”. `CC[C@H](C)[C@H](NC(=O)[C@H](CCCCN)NC(=O)[C@H](CCC(N)=O)NC(=O)[C@H](CC(C)C)NC(=O)[C@@H](N)Cc1ccc(O)cc1)C(=O)N[C@@H](CCCCN)C(=O)N[C@@H](CC(N)=O)C(=O)N[C@@H](CO)C(=O)N[C@@H](CC(C)C)C(=O)O` [cp38] (H-YLQKIKNSL-OH) was tested, and the “epitope” value was “cp38 *”. For `CC[C@H](C)[C@H](NC(=O)[C@@H](NC(=O)[C@H](CCCCN)NC(=O)[C@H](CC(C)C)NC(=O)[C@@H](N)Cc1ccc(O)cc1)[C@@H](C)O)C(=O)N[C@@H](CCC(N)=O)C(=O)N[C@@H](CC(N)=O)C(=O)N[C@@H](CO)C(=O)N[C@@H](CC(C)C)C(=O)O` [cp36] (H-YLKTIQNSL-OH), the “epitope” value was “cp36 *”. For `CC[C@H](C)[C@H](NC(=O)[C@H](CCCCN)NC(=O)[C@H](CCC(N)=O)NC(=O)[C@H](CC(C)C)NC(=O)[C@@H](N)Cc1ccc(O)cc1)C(=O)N[C@@H](CCC(N)=O)C(=O)N[C@@H](CC(N)=O)C(=O)N[C@@H](CO)C(=O)N[C@@H](CC(C)C)C(=O)O` [cp37] (H-YLQKIQNSL-OH), the “epitope” value was “cp37 *”.
